Source: PubChem BioAssay (NCI)
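A five-concentration, 48-hour dose response in 96-well plates underlies each endpoint, interpolated linearly between surrounding concentrations. TGI: concentration producing complete growth inhibition.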

What was measured:
Assay in all cases: NCI-60 cell line screen, 48 h
MDA-MB-231 breast = tested on: MDA-MB-231 breast
SK-MEL-5 melanoma = tested on: SK-MEL-5 melanoma
MCF7 breast = tested on: MCF7 breast
OVCAR-3 ovarian = tested on: OVCAR-3 ovarian
TK-10 renal = tested on: TK-10 renal
786-0 renal = tested on: 786-0 renal
UACC-257 melanoma = tested on: UACC-257 melanoma
RPMI-8226 leukemia = tested on: RPMI-8226 leukemia
HOP-62 NSCLC = tested on: HOP-62 NSCLC
KM12 colon = tested on: KM12 colon
CCRF-CEM leukemia = tested on: CCRF-CEM leukemia
SK-OV-3 ovarian = tested on: SK-OV-3 ovarian
SF-539 CNS = tested on: SF-539 CNS
SNB-19 CNS = tested on: SNB-19 CNS
LOX IMVI melanoma = tested on: LOX IMVI melanoma
U251 CNS = tested on: U251 CNS
OVCAR-8 ovarian = tested on: OVCAR-8 ovarian
SF-295 CNS = tested on: SF-295 CNS
HCT-116 colon = tested on: HCT-116 colon
OVCAR-5 ovarian = tested on: OVCAR-5 ovarian
SK-MEL-2 melanoma = tested on: SK-MEL-2 melanoma
SW-620 colon = tested on: SW-620 colon
HCT-15 colon = tested on: HCT-15 colon
MDA-MB-435 = tested on: MDA-MB-435
UACC-62 melanoma = tested on: UACC-62 melanoma
OVCAR-4 ovarian = tested on: OVCAR-4 ovarian
NCI-H522 lung = tested on: NCI-H522 lung
NCI-H226 lung = tested on: NCI-H226 lung
IGROV1 ovarian = tested on: IGROV1 ovarian
SN12C renal = tested on: SN12C renal
NCI-H460 lung = tested on: NCI-H460 lung
M14 melanoma = tested on: M14 melanoma
ACHN renal = tested on: ACHN renal
NCI/ADR-RES ovarian = tested on: NCI/ADR-RES ovarian
BT-549 breast = tested on: BT-549 breast
HT29 colon = tested on: HT29 colon
MDA-N = tested on: MDA-N
PC-3 prostate = tested on: PC-3 prostate
SF-268 CNS = tested on: SF-268 CNS
HL-60(TB) leukemia = tested on: HL-60(TB) leukemia
COLO 205 colon = tested on: COLO 205 colon
RXF 393 renal = tested on: RXF 393 renal
SNB-75 CNS = tested on: SNB-75 CNS
UO-31 renal = tested on: UO-31 renal
NCI-H23 lung = tested on: NCI-H23 lung
A549 NSCLC = tested on: A549 NSCLC
EKVX NSCLC = tested on: EKVX NSCLC
SK-MEL-28 melanoma = tested on: SK-MEL-28 melanoma
DU-145 prostate = tested on: DU-145 prostate
HS 578T breast = tested on: HS 578T breast
CAKI-1 renal = tested on: CAKI-1 renal
K-562 leukemia = tested on: K-562 leukemia
HOP-92 NSCLC = tested on: HOP-92 NSCLC
A498 renal = tested on: A498 renal
SR leukemia = tested on: SR leukemia
MOLT-4 leukemia = tested on: MOLT-4 leukemia

CC(C)(C)c1cc(/C=C/C(=O)CC(=O)/C=C/c2cc(C(C)(C)C)c(O)c(C(C)(C)C)c2)cc(C(C)(C)C)c1O
TGI (MDA-MB-231 breast): > 50 µM
TGI (SK-MEL-5 melanoma): > 50 µM
TGI (MCF7 breast): > 50 µM
TGI (OVCAR-3 ovarian): > 50 µM
TGI (TK-10 renal): > 50 µM
TGI (786-0 renal): > 50 µM
TGI (UACC-257 melanoma): > 50 µM
TGI (RPMI-8226 leukemia): > 50 µM
TGI (HOP-62 NSCLC): > 50 µM
TGI (KM12 colon): > 50 µM
TGI (CCRF-CEM leukemia): > 50 µM
TGI (SK-OV-3 ovarian): > 50 µM
TGI (SF-539 CNS): > 50 µM
TGI (SNB-19 CNS): > 50 µM
TGI (LOX IMVI melanoma): > 50 µM
TGI (U251 CNS): > 50 µM
TGI (OVCAR-8 ovarian): > 50 µM
TGI (SF-295 CNS): > 50 µM
TGI (HCT-116 colon): > 50 µM
TGI (OVCAR-5 ovarian): > 50 µM
TGI (SK-MEL-2 melanoma): > 50 µM
TGI (SW-620 colon): > 50 µM
TGI (HCT-15 colon): > 50 µM
TGI (MDA-MB-435): > 50 µM
TGI (UACC-62 melanoma): > 50 µM
TGI (OVCAR-4 ovarian): > 50 µM
TGI (NCI-H522 lung): > 50 µM
TGI (NCI-H226 lung): > 50 µM
TGI (IGROV1 ovarian): > 50 µM
TGI (SN12C renal): > 50 µM
TGI (NCI-H460 lung): > 50 µM
TGI (M14 melanoma): > 50 µM
TGI (ACHN renal): > 50 µM
TGI (NCI/ADR-RES ovarian): > 50 µM
TGI (BT-549 breast): > 50 µM
TGI (HT29 colon): > 50 µM
TGI (MDA-N): > 50 µM
TGI (PC-3 prostate): > 50 µM
TGI (SF-268 CNS): > 50 µM
TGI (HL-60(TB) leukemia): > 50 µM
TGI (COLO 205 colon): > 50 µM
TGI (RXF 393 renal): > 50 µM
TGI (SNB-75 CNS): > 50 µM
TGI (UO-31 renal): > 50 µM
TGI (NCI-H23 lung): > 50 µM
TGI (A549 NSCLC): > 50 µM
TGI (EKVX NSCLC): > 50 µM
TGI (SK-MEL-28 melanoma): > 50 µM
TGI (DU-145 prostate): > 50 µM
TGI (HS 578T breast): > 50 µM

CC1=Nc2c(C#N)ncn2N=C(C)C1
TGI (MDA-MB-231 breast): > 100 µM
TGI (SK-MEL-5 melanoma): > 100 µM
TGI (MCF7 breast): > 100 µM
TGI (OVCAR-3 ovarian): > 100 µM
TGI (TK-10 renal): > 100 µM
TGI (786-0 renal): > 100 µM
TGI (UACC-257 melanoma): > 100 µM
TGI (RPMI-8226 leukemia): > 100 µM
TGI (HOP-62 NSCLC): > 100 µM
TGI (KM12 colon): > 100 µM
TGI (CCRF-CEM leukemia): > 100 µM
TGI (CAKI-1 renal): > 100 µM
TGI (SK-OV-3 ovarian): > 100 µM
TGI (SF-539 CNS): > 100 µM
TGI (LOX IMVI melanoma): > 100 µM
TGI (U251 CNS): > 100 µM
TGI (SF-295 CNS): > 100 µM
TGI (HCT-116 colon): > 100 µM
TGI (OVCAR-5 ovarian): > 100 µM
TGI (SK-MEL-2 melanoma): > 100 µM
TGI (SW-620 colon): > 100 µM
TGI (MDA-MB-435): > 100 µM
TGI (UACC-62 melanoma): > 100 µM
TGI (OVCAR-4 ovarian): > 100 µM
TGI (NCI-H226 lung): > 100 µM
TGI (K-562 leukemia): > 100 µM
TGI (IGROV1 ovarian): > 100 µM
TGI (SN12C renal): > 100 µM
TGI (NCI-H460 lung): > 100 µM
TGI (M14 melanoma): > 100 µM
TGI (ACHN renal): > 100 µM
TGI (NCI/ADR-RES ovarian): > 100 µM
TGI (BT-549 breast): > 100 µM
TGI (HOP-92 NSCLC): > 100 µM
TGI (HT29 colon): > 100 µM
TGI (MDA-N): > 100 µM
TGI (PC-3 prostate): > 100 µM
TGI (SF-268 CNS): > 100 µM
TGI (A498 renal): > 100 µM
TGI (HL-60(TB) leukemia): > 100 µM
TGI (COLO 205 colon): > 100 µM
TGI (RXF 393 renal): > 100 µM
TGI (SR leukemia): > 100 µM
TGI (SNB-75 CNS): > 100 µM
TGI (MOLT-4 leukemia): > 100 µM
TGI (UO-31 renal): > 100 µM
TGI (NCI-H23 lung): > 100 µM
TGI (A549 NSCLC): > 100 µM
TGI (SK-MEL-28 melanoma): > 100 µM
TGI (DU-145 prostate): > 100 µM
TGI (HS 578T breast): > 100 µM
